For one assay, the target named is T1, CDK2/cyclin A (Homo sapiens, UniProt P24941).
T1 construct: made in house; host or cells: CDK2: insect cells (baculovirus); cyclin A: E. coli, then limited proteolysis
The assay can be described thus: Inhibition of CDK2/cyclin A retinoblastoma kinase activity. Particulars: read-out: Ki CDK 2/A. The assay is classed as biochemical. Put shortly:
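Baculovirus-expressed CDK2 with excess proteolyzed cyclin A (or purified complex), 150 nM or 5 nM, phosphorylating an Rb fragment with 25 μM [32/33P]ATP, pH 7.4, 30° C, 20 min. Filter-captured radioactivity by phosphorimager; apparent Ki from fits to competitive or tight-binding competitive inhibition using measured ATP Km.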

The test system of the next assay is Saos-2. The assay can be described thus: Inhibition of cell growth, MTT assay, Saos-2. The assay is classed as cell-based. To be noted: Saos-2, MTT assay; for IC50 / IC90: Homo sapiens; for % inhibition of growth in parentheses after >25: concentration not given. Put shortly: (§1)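 Cells rested 4 h after plating, then exposed to graded compound concentrations in 0.5% (v/v) DMSO for four to six days (cell-type dependent) at 37° C, 5% CO2. Viability was read by MTT (0.2 mg/mL final, 4 h at 37° C), with DMSO-solubilized formazan measured at 540 nm.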

Assay [1] concerns the target T2, human CDK1 (cdc2) and cyclin B (Homo sapiens, UniProt P06493).
T2 construct: purchased New England Biolabs (Beverly Mass.)
Put plainly: Inhibition of CDK1(cdc2)/cyclin B histone H1 kinase activity. The assay is classed as biochemical. To be noted: read-out: Ki CDK 1/B. The method, then:
Cyclin-dependent kinase activity was measured by quantifying the enzyme-catalyzed, time-dependent incorporation of radioactive phosphate from [^32P]ATP or [^33P]ATP into a protein substrate. Unless noted otherwise, assays were performed in 96-well plates in a total volume of 50 μL, in the presence of 10 mM HEPES (N-[2-hydroxyethyl]piperazine-N′-[2-ethanesulfonic acid]) (pH 7.4), 10 mM MgCl2, 25 μM adenosine triphosphate (ATP), 1 mg/mL ovalbumin, 5 μg/mL leupeptin, 1 mM dithiothreitol, 10 mM β-glycerophosphate, 0.1 mM sodium vanadate, 1 mM sodium fluoride, 2.5 mM ethylene glycol-bis(β-aminoethyl ether)-N,N,N′N′-tetraacetic acid (EGTA), 2% (v/v) dimethylsulfoxide, and 0.03-0.4 μCi [^32/33P]ATP per reaction. Reactions were initiated with enzyme, incubated at 30° C., and terminated after 20 minutes by the addition of ethylenediaminetetraacetic acid (EDTA) to 250 mM. The phosphorylated substrate was then captured on a nitrocellulose or phosphocellulose membrane using a 96-well filtration manifold, and unincorporated radioactivity was removed by repeated washing with 0.85% phosphoric acid. Radioactivity was quantified by exposing the dried membranes to a phosphorimager.
Apparent Ki values were measured by assaying enzyme activity in the presence of different inhibitor compound concentrations and subtracting the background radioactivity measured in the absence of enzyme. The kinetic parameters (kcat, Km for ATP) were measured for each enzyme under the usual assay conditions by determining the dependence of initial rates on ATP concentration. Inhibition data were fit to an equation for competitive inhibition using Kaleidagraph (Synergy Software), or were fit to an equation for competitive tight-binding inhibition using the software KineTic (BioKin, Ltd.).
The complex of human CDK1 (cdc2) and cyclin B was purchased from New England Biolabs (Beverly Mass.). Alternatively, a CDK1/glutathione-S-transferase-cyclin B1 complex was purified using glutathione affinity chromatography from insect cells that had been co-infected with the corresponding baculovirus expression vectors. The assay was executed as described above at 30° C. using 2.5 units of cdc2/cyclin B, 10 μg Histone H1 protein, and 0.1-0.3 μCi [^32/33P]ATP per assay. Phosphorylated histone substrate was captured by microfiltration on a phosphocellulose P81 membrane and quantified using a phosphorimager as described above. Ki values were measured using the described curve-fitting programs.

For a further assay, the system named is U2-OS. Put plainly: Inhibition of cell growth, MTT assay, U2-OS. The assay is classed as cell-based. To be noted: for IC50 / IC90: Homo sapiens, U2OS; for % inhibition of growth in parentheses after >25: concentration not given. Put shortly:
as §1

Assay [2] addresses T3, complex of human CDK4 and cyclin D3 (Homo sapiens, UniProt P11802).
T3 construct: made in house; host or cells: insect cells, co-infected with baculovirus
The assay can be described thus: Inhibition of CDK4/cyclin D retinoblastoma kinase activity (D-type cyclin is D3). The assay is classed as biochemical. To be noted: superscript a: D-type cyclin is D3; apparent Ki; read-out: Ki CDK 4/D. Put shortly: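 Radiometric assay: [32P]- or [33P]ATP phosphate incorporation into Rb substrate at 30°C for 20 min, stopped with EDTA, filter-captured and phosphorimaged.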

The test system of another assay is HCT116. The assay can be described thus: Inhibition of cell growth, MTT assay, HCT116. The assay is classed as cell-based, human. To be noted: for IC50 / IC90: Homo sapiens, HCT-116. Put shortly: as §1

T3 sequence (P11802 whole entry): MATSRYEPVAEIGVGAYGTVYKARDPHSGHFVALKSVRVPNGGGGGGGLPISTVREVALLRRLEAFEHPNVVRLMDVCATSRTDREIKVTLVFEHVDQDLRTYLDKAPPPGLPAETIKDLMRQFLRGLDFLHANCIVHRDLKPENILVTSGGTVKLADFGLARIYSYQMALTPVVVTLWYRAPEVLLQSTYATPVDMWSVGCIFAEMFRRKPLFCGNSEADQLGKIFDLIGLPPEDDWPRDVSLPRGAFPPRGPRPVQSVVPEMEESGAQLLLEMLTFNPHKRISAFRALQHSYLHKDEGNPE
T3 sequence (P30281 whole entry partner): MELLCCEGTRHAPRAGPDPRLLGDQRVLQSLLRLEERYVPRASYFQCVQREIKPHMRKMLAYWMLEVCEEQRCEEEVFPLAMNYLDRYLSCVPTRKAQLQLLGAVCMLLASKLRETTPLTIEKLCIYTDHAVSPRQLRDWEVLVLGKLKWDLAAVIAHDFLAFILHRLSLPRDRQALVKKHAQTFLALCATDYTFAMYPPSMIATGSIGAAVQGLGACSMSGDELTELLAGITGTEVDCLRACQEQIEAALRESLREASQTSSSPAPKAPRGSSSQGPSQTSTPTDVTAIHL
T2 sequence (P06493 whole entry): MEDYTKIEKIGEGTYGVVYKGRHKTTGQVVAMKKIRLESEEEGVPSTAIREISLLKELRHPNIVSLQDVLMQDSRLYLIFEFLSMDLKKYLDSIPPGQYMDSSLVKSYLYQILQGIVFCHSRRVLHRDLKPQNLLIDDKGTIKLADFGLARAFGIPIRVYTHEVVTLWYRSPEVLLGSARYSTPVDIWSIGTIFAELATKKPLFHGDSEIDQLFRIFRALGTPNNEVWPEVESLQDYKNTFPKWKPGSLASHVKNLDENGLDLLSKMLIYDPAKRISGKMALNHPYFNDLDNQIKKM
T2 sequence (P14635 whole entry partner): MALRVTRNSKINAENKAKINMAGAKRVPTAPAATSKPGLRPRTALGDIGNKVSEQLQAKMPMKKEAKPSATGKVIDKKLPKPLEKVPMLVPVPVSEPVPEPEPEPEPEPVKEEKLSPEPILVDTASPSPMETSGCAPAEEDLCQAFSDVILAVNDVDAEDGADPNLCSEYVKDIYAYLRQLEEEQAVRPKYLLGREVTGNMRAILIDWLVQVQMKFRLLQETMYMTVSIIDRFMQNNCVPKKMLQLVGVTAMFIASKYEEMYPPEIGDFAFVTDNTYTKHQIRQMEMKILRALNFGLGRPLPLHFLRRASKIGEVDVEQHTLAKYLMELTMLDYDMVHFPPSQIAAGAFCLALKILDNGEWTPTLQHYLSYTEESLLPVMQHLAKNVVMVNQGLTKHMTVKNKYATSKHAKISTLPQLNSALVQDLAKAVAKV

In the case of `CC(=O)c1ccc(Nc2nc(N)c(C(=O)c3ccccc3[N+](=O)[O-])s2)cc1` [C(24), 1-{4-[4-Amino-5-(2-nitro-benzoyl)-thiazol-2-ylamino]-phenyl}-ethanone], the Ki at CDK2/cyclin A amounted to 248 nM; in assay [1], 46 nM; in assay [2], 8 nM. For the same compound, the IC50 with Saos-2 was 1400 nM; with U2-OS, 1900 nM; in the assay with HCT116, 700 nM. In addition, the IC90 with Saos-2 was 2800 nM; in the assay on U2-OS it was 3000 nM; in the assay on HCT116, 1500 nM.

In the case of `Nc1nc(Nc2ccc3nc[nH]c3c2)sc1C(=O)c1c(Cl)cc(C(F)(F)F)cc1Cl` [C(37), [4-Amino-2-(1H-benzoimidazol-6-ylamino)-thiazol-5-yl]-(2,6-dichloro-4-trifluoromethyl-phenyl)-methanone], the values for the Ki (at CDK2/cyclin A; in assay [1]; in assay [2]) were 310 nM, 233 nM and 7 nM, respectively. Further, the figures for the 50% inhibitory concentration (IC50) in the assay on Saos-2, in the assay with U2-OS and in the assay with HCT116 were 14000 nM, 16000 nM and 10000 nM, respectively. The concentration for an effect of 90% (IC90) in the assay on Saos-2 is > 25000 nM; with U2-OS, > 25000 nM; with HCT116, 25000 nM. Moreover, the results for the “% inhibition of growth in parentheses after >25” value (“% inhibition of growth” for short) in the assay on Saos-2 and with U2-OS were “(70%)” and “(80%)”, respectively.

On to `Cc1ccsc1C(=O)c1sc(Nc2ccc(C(=O)C3COC(=O)[C@H]3N)cc2)nc1N` (stereo partly drawn) [C(45), trans-3RS-Amino-4RS-{4-[4-amino-5-(3-methyl-thiophene-2-carbonyl)-thiazol-2-ylamino]-benzoyl}-dihydro-furan-2-one], for which the Ki worked out at 103 nM at CDK2/cyclin A, 249 nM in assay [1] and 51 nM in assay [2]. The half-maximal inhibitory concentration (IC50) is 2000 nM in the assay on Saos-2, 5500 nM with U2-OS and 2000 nM with HCT116. In addition, the values for the 90% effect concentration (IC90) with Saos-2, in the assay with U2-OS and with HCT116 were 10000 nM, 12000 nM and 8000 nM, respectively.

Turning to `Cc1c(C(=O)c2sc(Nc3ccc(S(N)(=O)=O)cc3)nc2N)sc2ccccc12` [C(49), 4-[4-Amino-5-(3-methyl-benzo[b]thiophene-2-carbonyl)-thiazol-2-ylamino]-benzenesulfonamide], the Ki amounted to 10 nM on CDK2/cyclin A, 34 nM in assay [1] and 23 nM in assay [2]. For the same compound, the values for the IC50 with Saos-2, in the assay with U2-OS and with HCT116 were 4000 nM, 14000 nM and 5600 nM, respectively. Also, the IC90 is 20000 nM with Saos-2, 22000 nM in the assay with U2-OS and 12000 nM in the assay with HCT116.

As for `Nc1nc(Nc2ccc(N3CCOCC3)cc2)sc1C(=O)c1c(Cl)cccc1Cl` [C(55), [4-Amino-2-(4-morpholin-4-yl-phenylamino)-thiazol-5-yl]-(2,6-dichloro-phenyl)-methanone], the Ki at CDK2/cyclin A was found to be 493 nM; in assay [1] it was 504 nM; in assay [2], 8.5 nM. For the same compound, the IC50 came to 17000 nM with Saos-2, 18000 nM with U2-OS and 4300 nM with HCT116. In addition, the values for the IC90 in the assay with Saos-2, in the assay on U2-OS and in the assay with HCT116 were > 25000 nM, > 25000 nM and 17000 nM, respectively. The “% inhibition of growth” value is on record as 69% in the assay with Saos-2 and “(74%)” with U2-OS.

With `Nc1nc(Nc2ccc3nc[nH]c3c2)sc1C(=O)c1c(Cl)cncc1Cl` [C(63), [4-Amino-2-(1H-benzoimidazol-5-yl-amino)-thiazol-5-yl]-(3,5-dichloro-pyridin-4-yl)-methanone], the values for the Ki (on CDK2/cyclin A; in assay [1]; in assay [2]) were 200 nM, 133 nM and 17 nM, respectively. For the same compound, the IC50 in the assay on Saos-2 was 9000 nM; with U2-OS it was 16000 nM; with HCT116, 12000 nM. Besides, the figures for the concentration for an effect of 90% (IC90) with Saos-2, in the assay on U2-OS and in the assay on HCT116 were 20000 nM, > 25000 nM and 22000 nM, respectively. The “% inhibition of growth” value in the assay on U2-OS is 84%.

As to `CN1CCN(c2ccc(Nc3nc(N)c(C(=O)c4c(Cl)cncc4Cl)s3)cc2)CC1` [C(70), {4-Amino-2-[4-(4-methyl-piperazin-1-yl)-phenylamino]-thiazol-5-yl}-(3,5-dichloro-pyridin-4-yl)-methanone], the Ki at CDK2/cyclin A came out at 1120 nM; in assay [1], 1370 nM; in assay [2], 2.8 nM. For the same compound, the figures for the 50% inhibitory concentration (IC50) with Saos-2, in the assay on U2-OS and with HCT116 were 5800 nM, 5000 nM and 2200 nM, respectively. Besides, the 90% effect concentration (IC90) was 12000 nM in the assay with Saos-2, 11000 nM with U2-OS and 5900 nM with HCT116.

Turning to `CC(=O)Nc1ccc(Cl)c(C(=O)c2sc(Nc3ccc(N4CCN(C)CC4)cc3)nc2N)c1Cl` [C(86), N-(3-{4-Amino-2-[4-(4-methyl-piperazin-1-yl)-phenylamino]-thiazole-5-carbonyl}-2,4-dichloro-phenyl)-acetamide], the Ki at CDK2/cyclin A stood at 1100 nM; in assay [1], 1310 nM; in assay [2] it was 15 nM. The IC50 with Saos-2 worked out at 12000 nM; in the assay on U2-OS, 14000 nM; in the assay on HCT116 it was 6500 nM. The concentration for an effect of 90% (IC90) in the assay on Saos-2 came out at 22000 nM; in the assay on U2-OS, 22000 nM; in the assay with HCT116, 17000 nM.

Consider `Cc1cc([N+](=O)[O-])sc1C(=O)c1sc(Nc2ccc(S(N)(=O)=O)cc2)nc1N` [C(95), 4-[4-Amino-5-(3-methyl-5-nitro-thiophene-2-carbonyl)-thiazol-2-ylamino]-benzenesulfonamide], for which the results for the Ki (at CDK2/cyclin A; in assay [1]; in assay [2]) were < 50 nM, 75 nM and 25 nM, respectively. Further, the 50% inhibitory concentration (IC50) came to 1800 nM with Saos-2, 3900 nM with U2-OS and 1500 nM in the assay with HCT116. For the same compound, the IC90 with Saos-2 stood at 4500 nM; in the assay with U2-OS it was 5800 nM; in the assay on HCT116 it was 3000 nM.

As to `CN1CCN(c2ccc(Nc3nc(N)c(C(=O)c4c(Cl)cc(Br)c(N)c4Cl)s3)cc2)CC1` [C(96), (3-Amino-4-bromo-2,6-dichloro-phenyl)-{4-amino-2-[4-(4-methyl-piperazin-1-yl)-phenylamino]-thiazol-5-yl}-methanone], the Ki on CDK2/cyclin A was 324 nM; in assay [1] it was 231 nM; in assay [2], 1.5 nM. The IC50 is 4200 nM with Saos-2, 8000 nM in the assay on U2-OS and 18000 nM with HCT116. The IC90 in the assay with Saos-2 is 10000 nM; with U2-OS, 12000 nM; in the assay with HCT116, > 25000 nM. Moreover, the “% inhibition of growth” value in the assay with HCT116 (concentration not given) was “(82%)”.

Turning to `CC(=O)N1CCN(c2ccc(Nc3nc(N)c(C(=O)c4sccc4C)s3)cc2)CC1` [C(98), 2-[4-(1-Acetyl-piperazine-4-yl)-phenylamino]-4-amino-thiazol-5-yl-(3-methyl-thiophen-2-yl)-methanone], the values for the Ki (at CDK2/cyclin A; in assay [1]; in assay [2]) were 565 nM, 720 nM and 27 nM, respectively. Besides, the IC50 came out at 2700 nM with Saos-2, 2400 nM in the assay with U2-OS and 1300 nM with HCT116. The IC90 in the assay with Saos-2 was 5300 nM; in the assay with U2-OS it was 5200 nM; in the assay on HCT116 it was 2900 nM.

As for `CN(C)S(=O)(=O)c1ccc(Nc2nc(N)c(C(=O)c3c(F)cccc3F)s2)cc1` [C(109), 4-[4-Amino-5-(2,6-difluoro-benzoyl)-thiazol-2-ylamino]-N,N-dimethyl-benzenesulfonamide], the Ki at CDK2/cyclin A is 28 nM; in assay [1] it was 35 nM; in assay [2], 83 nM. Also, the results for the IC50 in the assay with Saos-2 and in the assay on U2-OS were 1500 nM and 4700 nM, respectively. For the same compound, the IC90 came out at 14000 nM in the assay on Saos-2 and 19000 nM in the assay with U2-OS.
